Reference: ChEMBL document CHEMBL5649166, “RIP3 induces apoptosis independent of pronecrotic kinase activity” (Mol Cell, 2014)

What was measured:
[1] = target: Insulin receptor-related protein (Homo sapiens) (UniProt P14616); assay: Inhibition of human IRR/INSRR using myelin basic protein as substrate at 1 uM in presence of 32P-ATP by Hotspot assay relative to control; values are per cent of control
[2] = target: T1, Dual serine/threonine and tyrosine protein kinase (Homo sapiens) (UniProt Q6XUX3); assay: Inhibition of human RIPK5 using myelin basic protein as substrate at 1 uM in presence of 32P-ATP by Hotspot assay relative to control; values are per cent of control
T1 sequence (whole entry): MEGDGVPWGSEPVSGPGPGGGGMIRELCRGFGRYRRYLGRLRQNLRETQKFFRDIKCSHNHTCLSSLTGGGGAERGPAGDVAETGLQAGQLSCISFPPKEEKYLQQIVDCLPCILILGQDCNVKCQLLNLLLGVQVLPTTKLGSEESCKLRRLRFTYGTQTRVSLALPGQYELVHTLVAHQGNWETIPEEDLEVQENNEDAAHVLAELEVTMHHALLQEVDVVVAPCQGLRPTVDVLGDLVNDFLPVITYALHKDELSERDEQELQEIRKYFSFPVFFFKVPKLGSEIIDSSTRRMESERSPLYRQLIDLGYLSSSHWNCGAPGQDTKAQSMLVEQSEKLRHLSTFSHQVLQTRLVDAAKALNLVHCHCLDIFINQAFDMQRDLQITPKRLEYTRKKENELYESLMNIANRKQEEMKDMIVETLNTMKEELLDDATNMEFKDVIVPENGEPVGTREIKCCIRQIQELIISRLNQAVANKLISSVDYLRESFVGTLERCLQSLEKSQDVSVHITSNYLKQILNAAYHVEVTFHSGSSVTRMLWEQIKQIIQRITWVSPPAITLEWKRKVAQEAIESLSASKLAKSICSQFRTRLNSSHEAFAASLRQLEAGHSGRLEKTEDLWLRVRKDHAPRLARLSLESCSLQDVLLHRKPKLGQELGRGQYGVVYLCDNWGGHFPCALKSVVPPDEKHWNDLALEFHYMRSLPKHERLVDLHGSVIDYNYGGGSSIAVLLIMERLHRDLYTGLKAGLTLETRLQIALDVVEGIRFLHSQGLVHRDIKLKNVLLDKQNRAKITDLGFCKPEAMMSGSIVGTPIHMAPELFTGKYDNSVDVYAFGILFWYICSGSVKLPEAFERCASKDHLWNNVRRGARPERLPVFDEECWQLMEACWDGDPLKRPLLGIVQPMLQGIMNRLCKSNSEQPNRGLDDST

[3] = target: RAF proto-oncogene serine/threonine-protein kinase (Homo sapiens) (UniProt P04049); assay: Inhibition of human RAF1 using MEK1 (K97R) as substrate at 1 uM in presence of 32P-ATP by Hotspot assay relative to control; values are per cent of control
Chain of RAF proto-oncogene serine/threonine-protein kinase (Homo sapiens) (P04049 whole entry): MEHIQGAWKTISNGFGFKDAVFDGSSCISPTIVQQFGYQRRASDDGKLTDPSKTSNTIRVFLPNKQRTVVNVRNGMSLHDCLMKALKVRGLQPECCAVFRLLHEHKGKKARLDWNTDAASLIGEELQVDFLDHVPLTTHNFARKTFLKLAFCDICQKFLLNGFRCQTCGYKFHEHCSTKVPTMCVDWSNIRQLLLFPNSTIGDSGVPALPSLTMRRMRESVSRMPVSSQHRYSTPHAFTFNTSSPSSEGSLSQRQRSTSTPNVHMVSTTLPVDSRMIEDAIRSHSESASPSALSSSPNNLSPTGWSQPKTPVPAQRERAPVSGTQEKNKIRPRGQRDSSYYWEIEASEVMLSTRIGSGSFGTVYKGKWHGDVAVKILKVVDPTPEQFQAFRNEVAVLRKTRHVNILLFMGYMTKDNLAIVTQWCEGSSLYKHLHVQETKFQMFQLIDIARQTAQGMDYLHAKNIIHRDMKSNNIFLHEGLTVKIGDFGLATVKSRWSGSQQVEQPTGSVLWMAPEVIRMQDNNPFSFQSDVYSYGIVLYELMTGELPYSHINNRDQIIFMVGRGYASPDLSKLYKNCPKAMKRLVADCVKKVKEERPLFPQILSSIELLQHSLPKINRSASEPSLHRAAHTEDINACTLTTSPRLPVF

[4] = target: Protein kinase C alpha type (Homo sapiens) (UniProt P17252); assay: Inhibition of human PKCa using ERMRPRKRQGSVRRRV as substrate at 1 uM in presence of 32P-ATP by Hotspot assay relative to control; values are per cent of control
[5] = target: Misshapen-like kinase 1 (Homo sapiens) (UniProt Q8N4C8); assay: Residual activity of human MINK/MINK1 using myelin basic protein as substrate at 1 uM in presence of 32P-ATP by Hotspot assay relative to control
Chain of Misshapen-like kinase 1 (Homo sapiens) (Q8N4C8 whole entry, looked up): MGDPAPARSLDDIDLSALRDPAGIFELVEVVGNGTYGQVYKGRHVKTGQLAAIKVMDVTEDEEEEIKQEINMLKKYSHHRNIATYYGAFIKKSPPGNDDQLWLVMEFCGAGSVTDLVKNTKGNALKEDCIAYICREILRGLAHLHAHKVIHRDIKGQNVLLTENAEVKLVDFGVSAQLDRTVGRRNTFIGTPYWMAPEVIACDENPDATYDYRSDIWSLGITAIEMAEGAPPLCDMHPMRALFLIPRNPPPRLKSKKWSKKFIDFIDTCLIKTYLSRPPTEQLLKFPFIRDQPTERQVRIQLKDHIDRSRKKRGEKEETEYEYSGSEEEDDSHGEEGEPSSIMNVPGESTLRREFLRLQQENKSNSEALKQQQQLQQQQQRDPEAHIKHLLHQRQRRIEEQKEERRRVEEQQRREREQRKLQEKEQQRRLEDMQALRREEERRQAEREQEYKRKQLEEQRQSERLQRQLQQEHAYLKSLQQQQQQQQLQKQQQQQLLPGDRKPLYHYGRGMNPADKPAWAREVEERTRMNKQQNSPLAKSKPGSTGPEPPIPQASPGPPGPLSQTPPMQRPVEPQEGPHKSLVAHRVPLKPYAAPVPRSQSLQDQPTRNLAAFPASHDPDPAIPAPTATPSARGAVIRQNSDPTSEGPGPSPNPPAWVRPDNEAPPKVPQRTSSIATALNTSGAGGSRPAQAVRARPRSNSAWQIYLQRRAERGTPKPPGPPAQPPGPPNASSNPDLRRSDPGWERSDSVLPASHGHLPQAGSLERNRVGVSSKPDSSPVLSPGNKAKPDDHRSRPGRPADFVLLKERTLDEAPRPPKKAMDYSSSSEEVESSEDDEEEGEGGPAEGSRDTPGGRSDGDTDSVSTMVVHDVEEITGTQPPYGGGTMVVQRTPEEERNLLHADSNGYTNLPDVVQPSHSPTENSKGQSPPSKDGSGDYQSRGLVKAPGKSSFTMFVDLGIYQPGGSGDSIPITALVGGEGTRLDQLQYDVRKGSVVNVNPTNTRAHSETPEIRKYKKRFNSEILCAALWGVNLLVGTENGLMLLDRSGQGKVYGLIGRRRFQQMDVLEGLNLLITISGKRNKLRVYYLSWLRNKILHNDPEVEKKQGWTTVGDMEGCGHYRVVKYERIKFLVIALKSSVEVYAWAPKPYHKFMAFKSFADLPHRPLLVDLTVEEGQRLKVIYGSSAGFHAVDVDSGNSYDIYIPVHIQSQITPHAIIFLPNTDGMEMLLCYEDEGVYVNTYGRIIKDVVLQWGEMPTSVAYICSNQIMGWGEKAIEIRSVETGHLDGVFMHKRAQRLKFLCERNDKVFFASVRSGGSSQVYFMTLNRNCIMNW

[6] = target: Serine/threonine-protein kinase PLK2 (Homo sapiens) (UniProt Q9NYY3); assay: Inhibition of human PLK2 using casein as substrate at 1 uM in presence of 32P-ATP by Hotspot assay relative to control; values are per cent of control
Chain of Serine/threonine-protein kinase PLK2 (Homo sapiens) (Q9NYY3 whole entry, looked up, canonical isoform): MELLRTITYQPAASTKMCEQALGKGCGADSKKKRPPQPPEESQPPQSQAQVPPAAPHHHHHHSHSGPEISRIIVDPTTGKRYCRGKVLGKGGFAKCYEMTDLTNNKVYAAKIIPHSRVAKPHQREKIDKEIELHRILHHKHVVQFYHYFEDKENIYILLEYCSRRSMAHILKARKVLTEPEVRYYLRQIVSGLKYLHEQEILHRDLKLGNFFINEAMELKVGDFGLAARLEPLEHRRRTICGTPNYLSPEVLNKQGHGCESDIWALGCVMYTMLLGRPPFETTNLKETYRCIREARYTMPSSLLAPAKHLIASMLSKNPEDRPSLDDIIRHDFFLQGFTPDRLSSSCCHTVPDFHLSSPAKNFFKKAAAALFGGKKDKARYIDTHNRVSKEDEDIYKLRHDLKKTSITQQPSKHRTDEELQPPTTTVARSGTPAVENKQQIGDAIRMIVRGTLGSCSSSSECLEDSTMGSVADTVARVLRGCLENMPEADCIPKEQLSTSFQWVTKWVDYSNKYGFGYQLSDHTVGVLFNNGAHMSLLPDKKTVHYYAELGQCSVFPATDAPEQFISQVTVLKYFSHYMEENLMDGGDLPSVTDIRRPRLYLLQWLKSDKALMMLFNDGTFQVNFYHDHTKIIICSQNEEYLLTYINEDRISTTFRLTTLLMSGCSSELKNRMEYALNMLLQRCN

[7] = target: T2, Phosphorylase b kinase gamma catalytic chain, liver/testis isoform (Homo sapiens) (UniProt P15735); assay: Inhibition of human PHKg2 using KKLNRTLSFAEPG as substrate at 1 uM in presence of 32P-ATP by Hotspot assay relative to control; values are per cent of control
T2 sequence (whole entry): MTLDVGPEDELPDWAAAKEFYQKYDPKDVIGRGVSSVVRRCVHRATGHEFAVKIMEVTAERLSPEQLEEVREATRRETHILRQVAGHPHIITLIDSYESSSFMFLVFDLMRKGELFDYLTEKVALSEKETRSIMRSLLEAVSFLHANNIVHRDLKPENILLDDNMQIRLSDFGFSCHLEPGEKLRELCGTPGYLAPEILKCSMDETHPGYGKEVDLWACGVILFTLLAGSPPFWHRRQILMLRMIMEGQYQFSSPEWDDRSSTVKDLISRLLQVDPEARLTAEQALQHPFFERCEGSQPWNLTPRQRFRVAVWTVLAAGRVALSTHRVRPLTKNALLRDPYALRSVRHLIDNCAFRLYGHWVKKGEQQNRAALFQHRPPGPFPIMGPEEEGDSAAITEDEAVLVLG

[8] = target: Mitogen-activated protein kinase 3 (Homo sapiens) (UniProt P27361); assay: Inhibition of human ERK1 using myelin basic protein as substrate at 1 uM in presence of 32P-ATP by Hotspot assay relative to control; values are per cent of control
Chain of Mitogen-activated protein kinase 3 (Homo sapiens) (P27361 whole entry): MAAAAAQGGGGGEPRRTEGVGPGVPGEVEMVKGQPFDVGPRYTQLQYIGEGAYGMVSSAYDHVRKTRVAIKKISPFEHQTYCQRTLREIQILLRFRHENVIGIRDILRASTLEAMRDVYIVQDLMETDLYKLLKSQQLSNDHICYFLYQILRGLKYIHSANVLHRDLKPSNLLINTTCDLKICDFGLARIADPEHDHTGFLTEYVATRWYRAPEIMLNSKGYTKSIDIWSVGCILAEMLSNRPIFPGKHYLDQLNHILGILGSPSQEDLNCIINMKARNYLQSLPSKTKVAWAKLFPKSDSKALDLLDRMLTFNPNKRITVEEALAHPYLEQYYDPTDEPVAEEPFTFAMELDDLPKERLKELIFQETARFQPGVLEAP

Chain of Insulin receptor-related protein (Homo sapiens) (P14616 27-742 limits assumed): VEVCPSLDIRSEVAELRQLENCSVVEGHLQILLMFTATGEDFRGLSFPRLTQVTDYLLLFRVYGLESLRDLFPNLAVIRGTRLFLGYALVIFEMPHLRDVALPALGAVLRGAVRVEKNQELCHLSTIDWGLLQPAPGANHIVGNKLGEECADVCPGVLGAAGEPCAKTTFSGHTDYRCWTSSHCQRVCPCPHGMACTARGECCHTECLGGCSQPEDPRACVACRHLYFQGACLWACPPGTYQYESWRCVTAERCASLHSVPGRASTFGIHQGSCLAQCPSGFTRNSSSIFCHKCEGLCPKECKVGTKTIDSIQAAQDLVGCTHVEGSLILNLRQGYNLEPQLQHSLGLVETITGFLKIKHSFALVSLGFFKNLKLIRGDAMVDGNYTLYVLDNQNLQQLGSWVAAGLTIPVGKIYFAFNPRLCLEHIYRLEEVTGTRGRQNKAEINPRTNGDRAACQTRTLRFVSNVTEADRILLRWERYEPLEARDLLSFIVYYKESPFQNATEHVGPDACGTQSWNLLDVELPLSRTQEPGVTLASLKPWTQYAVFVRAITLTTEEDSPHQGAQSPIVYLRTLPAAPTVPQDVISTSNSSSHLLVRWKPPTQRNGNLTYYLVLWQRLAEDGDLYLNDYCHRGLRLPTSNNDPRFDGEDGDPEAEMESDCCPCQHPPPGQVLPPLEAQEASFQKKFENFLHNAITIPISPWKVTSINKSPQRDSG
Chain of Insulin receptor-related protein (Homo sapiens) (P14616 747-1297 limits assumed): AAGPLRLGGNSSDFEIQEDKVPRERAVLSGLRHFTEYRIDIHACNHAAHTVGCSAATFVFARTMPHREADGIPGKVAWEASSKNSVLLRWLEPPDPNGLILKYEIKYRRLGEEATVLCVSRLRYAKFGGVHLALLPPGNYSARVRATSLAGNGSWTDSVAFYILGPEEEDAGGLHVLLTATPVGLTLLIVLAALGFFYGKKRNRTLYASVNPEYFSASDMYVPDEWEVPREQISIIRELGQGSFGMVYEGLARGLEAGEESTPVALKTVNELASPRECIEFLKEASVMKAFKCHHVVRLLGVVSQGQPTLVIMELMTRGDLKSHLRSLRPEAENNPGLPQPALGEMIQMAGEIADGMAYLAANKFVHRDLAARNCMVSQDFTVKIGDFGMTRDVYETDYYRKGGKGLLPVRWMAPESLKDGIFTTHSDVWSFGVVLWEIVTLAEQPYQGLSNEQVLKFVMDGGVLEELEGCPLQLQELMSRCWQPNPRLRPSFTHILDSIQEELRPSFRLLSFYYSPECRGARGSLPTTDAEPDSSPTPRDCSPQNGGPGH

Structure (SMILES) | residual activity [1] [%] | residual activity [2] [%] | residual activity [3] [%] | residual activity [4] [%] | residual activity [5] [%] | residual activity [6] [%] | residual activity [7] [%] | residual activity [8] [%]
Cc1cc(-c2cnc(N)c3c(-c4ccc5scnc5c4)csc23)n(C)n1 | 86.7 | 101 | 50.5 | 80.8 | 19.5 | 106 | 95.4 | 93.3
CNC(=O)c1ccc2c(c1)ncn2-c1ccc(CC(=O)OC(C)(C)C)cc1 | 93.3 | 95.6 | 91.3 | 107 | 91.8 | 99.1 | 100 | 94.7
CC(C)S(=O)(=O)c1ccc2nccc(Nc3ccc4scnc4c3)c2c1 | 98.6 | 106 | 54.1 | 80.2 | 94.6 | 94.7 | 98.2 | 89.9
